Consider 13 compounds from patent US8906925B2, “Pyrido[4,3-B]indoles containing rigid moieties” (Medivation Technologies, Inc., priority 2008, dated 2014).

“And” between values parts separate entries of the source, which are not always exact repeats. Equal values may be shown once. Read-outs that look alike come from different tables or passages of the source.

The target in one assay is histamine receptor H1 (Homo sapiens, UniProt P35367). The experiment in a line: Histamine H1 radioligand binding ([3H]Pyrilamine). The essentials: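 Values are percent inhibition of specific [3H]pyrilamine (1.2 nM) binding with compounds at ≤1 μM (1% DMSO vehicle); 180 min incubation at 25 °C, pH 7.4 Tris buffer, on CHO-expressed human H1 receptor; 1 μM pyrilamine defined nonspecific binding, bound ligand counted after filtration.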
Chain of histamine receptor H1 (P35367 whole entry): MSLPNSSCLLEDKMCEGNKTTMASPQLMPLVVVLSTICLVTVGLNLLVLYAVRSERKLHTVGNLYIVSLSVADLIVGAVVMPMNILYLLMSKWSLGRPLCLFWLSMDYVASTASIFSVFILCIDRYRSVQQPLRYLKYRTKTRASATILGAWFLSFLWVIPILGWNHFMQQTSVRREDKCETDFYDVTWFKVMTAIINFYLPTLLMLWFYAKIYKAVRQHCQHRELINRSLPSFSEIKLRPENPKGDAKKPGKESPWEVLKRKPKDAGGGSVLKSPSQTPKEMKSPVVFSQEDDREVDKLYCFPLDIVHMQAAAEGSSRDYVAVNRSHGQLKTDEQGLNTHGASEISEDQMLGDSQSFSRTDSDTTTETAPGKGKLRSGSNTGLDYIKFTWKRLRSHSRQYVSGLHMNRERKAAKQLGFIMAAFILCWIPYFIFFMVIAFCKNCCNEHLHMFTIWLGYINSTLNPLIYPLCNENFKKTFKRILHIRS

The target in assay [1] is T1, human recombinant serotonin (5-Hydroxytryptamine) 5-HT2A receptor (Homo sapiens, UniProt P28223).
T1 construct: expressed in transfected cells; host or cells: Chinese hamster ovary (CHO-K1) cells
T1 sequence (P28223 whole entry): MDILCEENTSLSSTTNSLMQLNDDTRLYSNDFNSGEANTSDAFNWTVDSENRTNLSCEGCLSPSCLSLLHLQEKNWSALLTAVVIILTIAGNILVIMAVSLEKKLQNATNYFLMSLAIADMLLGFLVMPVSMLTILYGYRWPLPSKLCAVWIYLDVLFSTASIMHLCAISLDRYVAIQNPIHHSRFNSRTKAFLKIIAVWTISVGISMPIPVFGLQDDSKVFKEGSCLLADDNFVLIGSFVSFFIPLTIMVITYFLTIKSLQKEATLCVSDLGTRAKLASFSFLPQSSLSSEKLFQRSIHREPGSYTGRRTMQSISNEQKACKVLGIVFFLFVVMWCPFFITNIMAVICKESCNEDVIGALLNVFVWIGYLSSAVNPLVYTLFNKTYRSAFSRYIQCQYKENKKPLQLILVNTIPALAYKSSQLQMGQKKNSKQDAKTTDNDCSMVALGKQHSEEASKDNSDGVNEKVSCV
The assay can be described thus: Serotonin 5-HT2A radioligand binding ([3H]Ketanserin). As to conditions: for inhibition at 1 µM: read-out: Inhibition of ligand binding, Serotonin 5-HT2A (percent inhibition of specific binding), compound at 1 μM; for inhibition at 0.1 µM: read-out: Inhibition of ligand binding, Serotonin 5-HT2A (percent inhibition of specific binding), compound at 0.1 μM. The procedure:
Compounds of the invention were incubated with 0.5 nM [^3H]Ketanserin for 60 min. at 25° C. Non-specific binding was estimated in the presence of 1 μM Mianserin. Receptor proteins were filtered and washed, the filters were then counted to determine [^3H]Ketanserin specifically bound.

Assay [2] deals with T2, human recombinant adrenergic α1D receptor (Homo sapiens, UniProt P25100).
T2 construct: expressed in transfected cells; host or cells: human embryonic kidney (HEK-293) cells
T2 sequence (P25100 1-572): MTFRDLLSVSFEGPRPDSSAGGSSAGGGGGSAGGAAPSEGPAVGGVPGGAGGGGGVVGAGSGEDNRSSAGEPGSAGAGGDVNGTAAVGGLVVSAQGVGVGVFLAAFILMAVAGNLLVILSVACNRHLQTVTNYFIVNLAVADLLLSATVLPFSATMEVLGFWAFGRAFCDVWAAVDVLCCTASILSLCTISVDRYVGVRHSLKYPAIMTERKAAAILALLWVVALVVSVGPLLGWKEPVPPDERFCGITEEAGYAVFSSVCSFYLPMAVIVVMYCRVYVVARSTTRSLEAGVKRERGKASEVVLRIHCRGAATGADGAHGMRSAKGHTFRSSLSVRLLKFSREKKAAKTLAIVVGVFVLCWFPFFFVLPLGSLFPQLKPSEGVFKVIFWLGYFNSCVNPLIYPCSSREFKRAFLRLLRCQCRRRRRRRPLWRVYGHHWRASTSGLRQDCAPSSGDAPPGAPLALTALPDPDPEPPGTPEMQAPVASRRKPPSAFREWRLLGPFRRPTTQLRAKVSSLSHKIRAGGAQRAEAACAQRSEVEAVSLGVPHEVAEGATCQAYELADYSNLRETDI
The assay can be described thus: Adrenergic α1D radioligand binding ([3H]Prozosin). On the procedure:
Compounds of invention were incubated with 0.6 nM [^3H]Prozosin for 60 min. at 25° C. Non-specific binding was estimated in the presence of 10 μM phentolamine. Receptor proteins were filtered and washed, the filters were then counted to determine [^3H]Prozosin specifically bound. Compounds were screened at 1 μM or lower, using 1% DMSO as vehicle. Biochemical assay results are presented as the percent inhibition of specific binding in Table 9.

In assay [3] the target is T3, human recombinant serotonin (5-Hydroxytryptamine) 5-HT2C receptor (Homo sapiens, UniProt P28335).
T3 construct: expressed in transfected cells; host or cells: Chinese hamster ovary (CHO-K1) cells
T3 sequence (P28335 33-458): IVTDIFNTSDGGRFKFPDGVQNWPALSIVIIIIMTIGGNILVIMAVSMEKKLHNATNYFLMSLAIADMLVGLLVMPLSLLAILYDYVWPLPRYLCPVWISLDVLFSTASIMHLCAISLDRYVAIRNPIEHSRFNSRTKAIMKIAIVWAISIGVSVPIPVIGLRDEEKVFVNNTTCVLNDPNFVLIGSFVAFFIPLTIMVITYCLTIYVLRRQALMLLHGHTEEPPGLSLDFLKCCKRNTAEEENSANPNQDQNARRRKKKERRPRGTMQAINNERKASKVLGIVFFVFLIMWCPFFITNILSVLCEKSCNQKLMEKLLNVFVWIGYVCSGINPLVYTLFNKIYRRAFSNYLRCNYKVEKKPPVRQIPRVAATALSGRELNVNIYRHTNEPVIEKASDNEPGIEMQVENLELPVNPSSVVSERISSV
The assay can be described thus: Serotonin 5-HT2C radioligand binding ([3H]Mesulergine). Particulars: for inhibition at 1 µM / inhibition at 0.1 µM: read-out: Inhibition of ligand binding, Serotonin 5-HT2C (percent inhibition of specific binding). The essentials:
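Compounds tested at 1 μM or lower (1% DMSO vehicle) for displacement of 1 nM [3H]Mesulergine over 60 min at 25° C. Specific binding determined by filtration counting, with 1 μM Mianserin defining non-specific binding; values are percent inhibition.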

Assay [4] concerns the target human dopamine D2L receptor (Homo sapiens, UniProt P14416). The experiment in a line: Dopamine D2L radioligand binding ([3H]Spiperone). Particulars: for inhibition at 1 µM: read-out: Inhibition of ligand binding, Dopamine D2L. An excerpt: Non-specific binding was estimated in the presence of […] Haloperidol. Receptor proteins were filtered and washed, the filters were then counted to determine [^3H]Spiperone specifically bound. […] Biochemical assay results are presented as the percent inhibition of specific binding in Table 9.

Setting [5] is: read-out: Histamine Binding (1 μM) H1, percent inhibition of specific binding, 1 μM.
Setting [6] is: percent inhibition of specific binding, compound at 1 μM, read-out: Inhibition of ligand binding, Adrenergic α1D.
Where [7] appears, read: percent inhibition of specific binding, compound at 1 μM.

Chain of human dopamine D2L receptor (P14416 whole entry): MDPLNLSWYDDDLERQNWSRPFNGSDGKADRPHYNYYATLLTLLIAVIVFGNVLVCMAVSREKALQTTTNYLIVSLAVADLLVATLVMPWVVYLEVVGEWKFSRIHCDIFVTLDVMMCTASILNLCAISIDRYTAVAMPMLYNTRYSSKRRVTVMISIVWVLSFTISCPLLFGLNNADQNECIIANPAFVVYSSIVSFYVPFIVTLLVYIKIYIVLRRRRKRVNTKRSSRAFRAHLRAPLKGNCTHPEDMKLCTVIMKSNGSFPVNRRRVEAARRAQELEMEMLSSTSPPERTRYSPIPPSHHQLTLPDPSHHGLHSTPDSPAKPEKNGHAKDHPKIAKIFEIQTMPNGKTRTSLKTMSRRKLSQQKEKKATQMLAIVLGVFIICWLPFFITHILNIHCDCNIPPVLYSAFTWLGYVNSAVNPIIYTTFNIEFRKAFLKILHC

`CN1CCc2c(c3cc(Cl)ccc3n2C2=C(c3cccnc3)CCCC2)C1` [Compound No. 166, 8-chloro-2-methyl-5-(2-(pyridin-3-yl)cyclohex-1-enyl)-2,3,4,5-tetrahydro-1H-pyrido[4,3-b]indole]: the inhibition (in general, the drop in the measured response relative to a control, in per cent) at 1 µM was 14% at histamine receptor H1 (setting [5]); 46% in assay [1]; 28% in assay [2] (setting [6]); 46% in assay [3] (compound at 1 μM); -2% in assay [4] (setting [7]).

For the compound `CN1CCc2c(c3cc(Cl)ccc3n2CC(C)(O)c2ccc(F)cc2)C1` (stereo not drawn) [Compound 45, 1-(8-chloro-1,2,3,4-tetrahydro-2-methylpyrido[4,3-b]indol-5-yl)-2-(4-fluorophenyl)propan-2-ol], the “Histamine Binding (1 μM) H1, percent inhibition of specific binding” value on histamine receptor H1 stood at 73%. In addition, the inhibition at 1 µM at histamine receptor H1 (setting [5]) turned out to be 65%; in assay [1] it was 99%; in assay [2] (setting [6]), 61%; in assay [3] (compound at 1 μM), 95%; in assay [4] (setting [7]) it was 34%. Moreover, the results for the inhibition at 0.1 µM in assay [1] and in assay [3] (compound at 0.1 μM) were 86% and 88%, respectively.

With `COc1ccc(C(C)(O)Cn2c3c(c4cc(C)ccc42)CN(C)CC3)cc1F` (stereo not drawn) [Compound 173, 1-(2,8-dimethyl-3,4-dihydro-1H-pyrido[4,3-b]indol-5(2H)-yl)-2-(3-fluoro-4-methoxyphenyl)propan-2-ol], the inhibition at 1 µM was 91% at histamine receptor H1 (setting [5]), 58% in assay [2] (setting [6]), 98% in assay [3] (compound at 1 μM) and 32% in assay [4] (setting [7]).

With `CCCCC(O)(Cn1c2c(c3cc(Cl)ccc31)CN(C)CC2)c1ccc(F)cc1` (stereo not drawn) [Compound 178, 1-(8-chloro-2-methyl-3,4-dihydro-1H-pyrido[4,3-b]indol-5(2H)-yl)-2-(4-fluorophenyl)hexan-2-ol], the inhibition at 1 µM amounted to 30% at histamine receptor H1 (setting [5]); 98% in assay [1]; 46% in assay [2] (setting [6]); 95% in assay [3] (compound at 1 μM); 30% in assay [4] (setting [7]).

Take `CN1CCc2c(c3cc(Cl)ccc3n2CC(O)(c2ccc(F)cc2)C2CC2)C1` (stereo not drawn) [Compound 82, 2-(8-chloro-1,2,3,4-tetrahydro-2-methylpyrido[4,3-b]indol-5-yl)-1-cyclopropyl-1-(4-fluorophenyl)ethanol]: the “Histamine Binding (1 μM) H1, percent inhibition of specific binding” value at histamine receptor H1 was 35% and 64%. The inhibition at 0.1 µM in assay [1] was determined as 92%; in assay [3] (compound at 0.1 μM) it was 94%. Also, the inhibition at 1 µM in assay [1] stood at 100%; in assay [2] (setting [6]), 62%; in assay [3] (compound at 1 μM) it was 105%; in assay [4] (setting [7]), 39%. In assay [4] (percent inhibition of specific binding, compound at 1 μM, 1 µM), the “Inhibition of ligand binding, Dopamine D2L” value was 45%.

For `Cc1ccc2c(c1)c1c(n2/C=C/c2ccc(C)nc2)CCN(C)C1` [compound 95, 2,3,4,5-tetrahydro-2,8-dimethyl-5-((E)-2-(6-methylpyridin-3-yl)vinyl)-1H-pyrido[4,3-b]indole], the inhibition at 1 µM at histamine receptor H1 (setting [5]) was 85%; in assay [1], 91%; in assay [2] (setting [6]), 89%; in assay [3] (compound at 1 μM), 91%; in assay [4] (setting [7]) it was 17%.

Take `COc1ccc(C(C)(O)Cn2c3c(c4cc(Cl)ccc42)CN(C)CC3)cc1F` (stereo not drawn) [Compound 59, 1-(8-chloro-1,2,3,4-tetrahydro-2-methylpyrido[4,3-b]indol-5-yl)-2-(3-fluoro-4-methoxyphenyl)propan-2-ol]: the inhibition at 1 µM was determined as 63% on histamine receptor H1 (setting [5]); 96% in assay [1]; 81% in assay [2] (setting [6]); 99% in assay [3] (compound at 1 μM); 17% in assay [4] (setting [7]).

Turning to `Cc1ccc2c(c1)c1c(n2CC#Cc2ccccn2)CCN(C)C1` [Compound No. 500, 2,3,4,5-tetrahydro-2,8-dimethyl-5-(3-(pyridin-2-yl)prop-2-ynyl)-1H-pyrido[4,3-b]indole], the inhibition at 1 µM on histamine receptor H1 (setting [5]) is 70%; in assay [1], 40%; in assay [2] (compound at 1 μM, read-out: Inhibition of ligand binding, Adrenergic α1D (percent inhibition of specific binding)), 11%; in assay [3] (compound at 1 μM) it was 77%.

Regarding `CCN1CCc2c(c3ccccc3n2CC(O)c2ccc(C)cc2)C1` (racemic) [Compound 44, racemic-2-(2-ethyl-1,2,3,4-tetrahydropyrido[4,3-b]indol-5-yl)-1-p-tolylethanol], the inhibition at 1 µM at histamine receptor H1 (setting [5]) was 54%; in assay [1], 80%; in assay [2] (setting [6]), 35%; in assay [3] (compound at 1 μM), 36%.

Consider `Cc1ccc2[nH]c3c(c2c1)CN(C)CC3` [Compound 3, 2,8-Dimethyl-2,3,4,5-tetrahydro-1H-pyrido[4,3-b]indole], for which the inhibition at 1 µM at histamine receptor H1 (read-out: Histamine Binding (1 μM) H1, percent inhibition of specific binding) came to 30%; in assay [2] (read-out: Inhibition of ligand binding, Adrenergic α1D), 42%; in assay [3] (compound at 1 μM), 96%; in assay [4], 14%.

As to `Cc1ccc(C(O)Cn2c3c(c4ccccc42)CN(C)CC3)cc1` (racemic) [Compound 53, racemic-2-(1,2,3,4-tetrahydro-2-methylpyrido[4,3-b]indol-5-yl)-1-p-tolylethanol], the inhibition at 1 µM stood at 47% on histamine receptor H1 (setting [5]), 100% in assay [1], 55% in assay [2] (setting [6]) and 82% in assay [3] (compound at 1 μM).

Turning to `CCN1CCc2c(c3cc(C)ccc3n2CC(O)c2ccc(C)cc2)C1` (racemic) [Compound 51, racemic-2-(2-ethyl-1,2,3,4-tetrahydro-8-methylpyrido[4,3-b]indol-5-yl)-1-p-tolylethanol], the inhibition at 1 µM at histamine receptor H1 (setting [5]) is 100%; in assay [1], 102%; in assay [2] (setting [6]), 89%; in assay [3] (compound at 1 μM) it was 84%. The inhibition at 0.1 µM in assay [3] (compound at 0.1 μM) turned out to be 43%.

As for `C/C(=C\n1c2c(c3cc(C)ccc31)CN(C)CC2)c1ccncc1` [Compound 88, (E)-2,3,4,5-tetrahydro-2,8-dimethyl-5-(2-(pyridin-4-yl)prop-1-enyl)-1H-pyrido[4,3-b]indole], the “Inhibition of ligand binding, Serotonin 5-HT2A (percent inhibition of specific binding)” value in assay [1] (compound at 0.1 μM, 0.1 µM) is 95%; in assay [1] (compound at 1 μM, 1 µM), 101%. The inhibition at 0.1 µM in assay [1] turned out to be 87%. The inhibition at 1 µM was 98% in assay [1], 78% in assay [2] (setting [6]) and 99% in assay [3] (compound at 1 μM). Besides, the “Inhibition of ligand binding, Serotonin 5-HT2C (percent inhibition of specific binding)” value was 74% and 96% in assay [3] (compound at 0.1 μM, 0.1 µM); 100% in assay [3] (compound at 1 μM, 1 µM).
